Measurements published in patent US4481141A, “Nondiffusible yellow metallized azo dye-releasing compounds” (Eastman Kodak Company, priority 1983, dated 1984).
Entries after “also recorded” stand apart in the source; their conditions may differ.

Experiments:
Assay type in all cases: physicochemical
[1] = Comparison with prior art: absorption in dioxane/water with and without nickel ions
Experimental: In U.S. Pat. No. 4,148,643, Compound J in column 32 is the nickel complex of the following dye compound: [drawing 20] The nickel-dye complex is listed as having a λmax of 462 nm and a half-band width of 76 nm when adsorbed to a cationic polymeric mordant on a film strip. A 1:1 dioxane/water mixture at a pH of 7.0 of this nickel-dye complex was prepared. It absorbed at 444 nm in the presence of excess nickel ions and 402 nm in the absence of nickel ions.
In Table I, Compound C has the following structure: [drawing 21] The compound has a quinoline nitrogen chelating group instead of a hydroxyl chelating group as in Compound J of the '643 patent. A 1:1 dioxane/water mixture at a pH of 7.0 of the above Compound C was prepared. It absorbed at 452 nm in the presence of excess nickel ions and at 387 nm in the absence of nickel ions.

[2] = Dye solution spectra of Ni-dye complexes (Table I); conditions: 3:1 dioxane:water, pH 7, excess nickel ion
Excerpt: (§1) The receiver was removed from the dye solution, washed in distilled water, placed in a pH 7.0 buffer solution and dried. Transmission spectra obtained on each sample of the mordanted dyes were normalized by computer to a density of 1.0. The characteristic wavelength of the dye, λ1/2 in nm, is the mean of the wavelength limits of the absorption envelope at half the maximum density. The HBW ("half band width") in nm is the range or distance between those limits. The dye solution spectrum in 3:1 dioxane:water at pH 7 in the presence of excess nickel ion is also given.

[3] = Light stability of mordanted dyes (HID fade, Table I); conditions: unmetallized dye; nickel layer/poly(4-vinylpyridine) receiver; 10 days HID, 50,000 lux, 38° C., pH 7
Experimental: (§2) A receiving element was prepared comprising a poly(ethylene terephthalate) film support having thereon a nickel sulfate hexahydrate (0.58 g/m^2)/gelatin (1.08 g/m^2) metal complexing layer, and a poly(4-vinylpyridine)/gelatin mordant layer (each at 2.15 g/m^2), which forms metal complexes with the unmetallized dyes. […]
The above receiving elements at pH 7 were then subjected to 10 days irradiation by a high intensity daylight (HID), 6000 W Xenon arc lamp, the sample receiving 50,000 lux through a Wratten 2B (ultraviolet) filter at approximately 38° C. and low humidity. The percent fade represents the loss in density at λmax after irradiation.

[4] = Dye diffusion, solution test; conditions: 0.0025M dye, pH 13.4
Excerpt: (§3) The released dyes in Table I were also subjected to the conditions of two different dye diffusion tests. One, the "solution test" involved dissolving the dye in a viscous composition and transferring it through a receiving element which contains an opaque and reflecting layer in addition to the mordant layer. The other, a "gel pad test" involved imbibing the dye from solution into a thick gelatin layer, and then transferring it by direct lamination to the same receiving element which had been preswollen by soaking 5 minutes in a solution of 0.1 potassium hydroxide. The receiver for these tests had the following composition (coverages are parenthetically given in g/m^2):
(§4) A transparent poly(ethylene terephthalate) film support coated with
(§5) (1) a mordant layer of poly(styrene-co-N-vinylbenzyl-N-benzyl-N,N-dimethylammonium chloride-co-divinylbenzene) (2.28) and gelatin (2.28);
(§6) (2) an opaque and reflecting layer of carbon black (1.88) in gelatin (1.23) and titanium dioxide (16.1) in gelatin (2.63); and
(§7) (3) an overcoat layer of gelatin (4.3).
Approximately 0.075 mmol of the released dye was dissolved in 10 ml of 0.125N potassium hydroxide. After the dye was completely dissolved, 20 ml of a viscous composition was added; and the resulting solution, stirred for at least 20 minutes, was 0.0025M in dye at a pH of 13.4. The viscous composition was prepared from 46.2 g potassium hydroxide and 54 g carboxymethylcellulose dissolved in 1200 ml water. […] Measurement of the rate of dye diffusion was commenced at the point at which half of the laminate had passed through the rollers. The appearance of dye on the mordant was measured at λmax as diffuse reflection density vs. time. The reflection density was converted to transmission density by computer with the aid of a mathematical relation derived from a previous calibration. A plot of transmission density, which is proportional to concentration vs. time, was derived; and the value of t-1/2 of dye transfer, the time in seconds required to obtain one-half of the maximum transmission density, calculated.

[5] = Transmission spectra of mordanted dyes on receiving element (Table I); conditions: unmetallized dye; nickel sulfate layer/poly(4-vinylpyridine) mordant receiver; pH 7.0
Experimental: as §2, §1

[6] = Stability of dye:nickel complex under gel pad transfer conditions; conditions: after gel pad diffusion test
Experimental: A donor element, containing a thick pad of deionized acid-processed gelatin (26 g/m^2) hardened with 2 percent bis(vinylsulfonylmethyl)ether, was imbibed with a solution of 0.1M in potassium hydroxide and 1.3×10^-3 M in dye. The pad was soaked to full penetration, surface wiped, and then laminated in direct contact to the above receiving element which had been presoaked for 5 minutes at 0.1M KOH. The t-1/2 of dye transfer was obtained as in the solution test. The diffusion times by the "gel pad test" are substantially longer than by the "solution test".
When the unmetallized dye ligand of Compound J of the '643 patent and the 1:1 complex thereof were subjected to the gel pad diffusion test as described in Example 1, the values obtained were 66 sec. and 146 sec., respectively.

[7] = Dye diffusion, gel pad test
Excerpt: as §3, §4, §5, §6, §7
A donor element, containing a thick pad of deionized acid-processed gelatin (26 g/m^2) hardened with 2 percent bis(vinylsulfonylmethyl)ether, was imbibed with a solution of 0.1M in potassium hydroxide and 1.3×10^-3 M in dye. […]

Row | absorption wavelength in the presence of excess nickel ions ([1]; 1:1 dioxane/water, pH 7.0, excess nickel ions) [nm] | absorption wavelength in the absence of nickel ions ([1]; 1:1 dioxane/water, pH 7.0, no nickel ions) [nm] | spectrum at reduced nickel ion concentration ([1]; nickel ion at one-half the molar concentration of the dye) | Spectra of Ni-Dye Complexes, Dye Solution, HBW (half band width) [2] [nm] | Spectra of Ni-Dye Complexes, Dye Solution, λ1/2 [2] [nm] | % Fade (loss in density at λmax after irradiation) [3] [%] | Dye Diffusion t1/2, Soln. [4] [s] | Spectra of Ni-Dye Complexes, Mordant, HBW (half band width) [5] [nm] | Spectra of Ni-Dye Complexes, Mordant, λ1/2 [5] [nm] | gel pad diffusion test value ([7]; gel pad diffusion test as in Example 1 (comparison with prior art)) [s] | Dye Diffusion t1/2, Gel Pad ([7]; gel pad test, 0.1M KOH, 1.3×10^-3 M dye) [s] | Compound | nature/stability of dye:nickel complex from spectrum ([1]; 0.5 mol Ni^++, listed as Dye C) | spectrum of the dye on the receiver after transfer [6]
1 | 452 | 387 | no change in the spectrum | 70 | 448 | 1.0 | 37 | 74 | 457 |  |  | CC(O)=C(C#N)N=Nc1ccc(S(=O)(=O)Nc2cccc(S(N)(=O)=O)c2)c2cccnc12 [Compound C] | stable 2:1 complex of dye to metal; also recorded: much more stable 2:1 dye:nickel complex than compound J of the '643 patent | 
2 |  |  |  | 70 | 451 | 8.0 | 39 | 73 | 459 |  |  | CC(O)=C(C#N)N=Nc1ccc(S(=O)(=O)Nc2cccc(O)c2)c2cccnc12 [D] |  | 
3 |  |  |  | 72 | 435 | 1.0 |  | 77 | 439 |  |  | O=c1c(N=Nc2cccc3cccnc23)c(O)n(-c2ccccc2)n1-c1ccccc1 [L] |  | 
4 |  |  |  | 72 | 445 | 2.0 | 29 | 69 | 456 |  |  | CC(C)(C)C(O)=C(C#N)N=Nc1ccc(S(N)(=O)=O)c2cccnc12 [E] |  | 
5 |  |  |  | 67 | 445 | 1.5 | 27 | 70 | 456 |  |  | CC(O)=C(C#N)N=Nc1ccc(S(N)(=O)=O)c2cccnc12 [B] |  | 
6 |  |  |  | 70 | 460 | 1.0 | 27 | 75 | 470 |  |  | N#CC(N=Nc1ccc(S(N)(=O)=O)c2cccnc12)=C(O)c1ccccc1 [G] |  | 
7 |  |  |  |  |  |  |  |  |  | 66 |  | CC(O)=C(C#N)N=Nc1cc(S(N)(=O)=O)ccc1O [reference compound] |  | showed the presence of the unmetallized dye only
8 |  |  |  | 70 | 446 | 2.0 |  | 75 | 458 |  |  | N#CC(N=Nc1cccc2cccnc12)=C(O)c1ccccc1 [F] |  | 
9 |  |  |  | 70 | 450 | 3.6 | 40 | 79 | 455 |  |  | CC(C)(C)C(O)=C(C#N)N=Nc1ccc(S(=O)(=O)Nc2cccc(S(N)(=O)=O)c2)c2cccnc12 [H] |  | 
10 |  |  |  | 72 | 450 | 1.0 |  | 77 | 459 |  |  | NS(=O)(=O)c1ccc(N=Nc2c(O)n(-c3ccccc3)n(-c3ccccc3)c2=O)c2ncccc12 [M] |  | 
11 |  |  |  | 68 | 431 |  |  |  |  |  |  | CC(O)=C(C#N)N=Nc1cccc2cccnc12 [A] |  | 
12 |  |  |  | 102 | 444 | 3.0 |  | 116 | 447 |  |  | Cc1nn(-c2ccccc2)c(O)c1N=Nc1cccc2cccnc12 [N] |  | 
13 |  |  |  | 68 | 451 | 7.2 | 34 | 77 | 455 |  | 127 | CC(O)=C(C#N)N=Nc1ccc(S(=O)(=O)Nc2cccc(C(=O)O)c2)c2cccnc12 [I] |  | 
14 |  |  |  | 98 | 429 | 0.0 |  | 85 | 452 |  |  | O=c1oc2ccccc2c(O)c1N=Nc1cccc2cccnc12 [O] |  | 
